Values of other authors, collected in patent US10363219B2, “Method of preparing albumin nanoparticle carrier wrapping taxane drug” (Zhejiang Academy of Forestry, priority 2016, dated 2019).

Settings: relative to paclitaxel

CC(=O)O[C@@]12CO[C@@H]1C[C@H](O)[C@@]1(C)C(=O)[C@H](O)C3=C(C)[C@@H](OC(=O)[C@H](O)[C@@H](NC(=O)OC(C)(C)C)c4ccccc4)C[C@@](O)([C@@H](OC(=O)c4ccccc4)[C@H]21)C3(C)C [Docetaxel]
cytotoxic effect, times of that of paclitaxel: 1.3-12 times
